Laboratory results published in the supplement of paper PMC10307832.

Assays:
Experiment in all cases: relative viability (nuclei count vs DMSO), 5 days (fraction); higher = more cells survive
IU1-47 + Bortezomib = compound: CC1=CC(=C(N1C2=CC=C(C=C2)Cl)C)C(=O)CN3CCCCC3 [IU1-47] + CC(C)C[C@H](NC(=O)[C@H](Cc1ccccc1)NC(=O)c1cnccn1)B(O)O [Bortezomib] (partner 0.002 µM)
Outline: (§1)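 One day after seeding in 1536-well plates, lung cancer cell lines were dosed by pin tool. Dosing was either single-drug or a fixed anchor-drug dose plus five library-drug doses (not always all listed) in √10 steps. After 5 days, nuclei were stained in one fix-and-stain step and counted on 4× images, and relative viability is the nuclei count of treated wells over that of vehicle wells, given as the median of duplicate plates.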

IU1-47 + Linsitinib = compound: CC1=CC(=C(N1C2=CC=C(C=C2)Cl)C)C(=O)CN3CCCCC3 [IU1-47] + C[C@]1(O)C[C@@H](c2nc(-c3ccc4ccc(-c5ccccc5)nc4c3)c3c(N)nccn32)C1 [Linsitinib] (partner 1 µM)
Outline: as §1

FG-4592 + Palbociclib = compound: Cc1nc(C(=O)NCC(=O)O)c(O)c2ccc(Oc3ccccc3)cc12 [FG-4592] + CC(=O)c1c(C)c2cnc(Nc3ccc(N4CCNCC4)cn3)nc2n(C2CCCC2)c1=O [Palbociclib] (partner 0.5 µM)
Outline: as §1

FG-4592 + Dasatinib = compound: Cc1nc(C(=O)NCC(=O)O)c(O)c2ccc(Oc3ccccc3)cc12 [FG-4592] + Cc1nc(Nc2ncc(C(=O)Nc3c(C)cccc3Cl)s2)cc(N2CCN(CCO)CC2)n1 [Dasatinib] (partner 0.075 µM)
Outline: as §1

Cell Line | relative viability (IU1-47 + Bortezomib; first compound 0.08 µM) | relative viability (IU1-47 + Bortezomib; first compound 0.253 µM) | relative viability (IU1-47 + Bortezomib; first compound 0.8 µM) | relative viability (IU1-47 + Bortezomib; first compound 2.53 µM) | relative viability (IU1-47 + Bortezomib; first compound 8 µM) | relative viability (IU1-47 + Linsitinib; first compound 0.08 µM) | relative viability (IU1-47 + Linsitinib; first compound 0.253 µM) | relative viability (IU1-47 + Linsitinib; first compound 0.8 µM) | relative viability (IU1-47 + Linsitinib; first compound 2.53 µM) | relative viability (IU1-47 + Linsitinib; first compound 8 µM) | relative viability (FG-4592 + Palbociclib; first compound 0.08 µM) | relative viability (FG-4592 + Palbociclib; first compound 0.253 µM) | relative viability (FG-4592 + Palbociclib; first compound 0.8 µM) | relative viability (FG-4592 + Palbociclib; first compound 2.53 µM) | relative viability (FG-4592 + Palbociclib; first compound 8 µM) | relative viability (FG-4592 + Dasatinib; first compound 0.08 µM) | relative viability (FG-4592 + Dasatinib; first compound 0.253 µM) | relative viability (FG-4592 + Dasatinib; first compound 0.8 µM) | relative viability (FG-4592 + Dasatinib; first compound 2.53 µM) | relative viability (FG-4592 + Dasatinib; first compound 8 µM)
NCI-H661 | 0.962 | 0.944 | 0.896 | 0.564 | 0.732 | 0.622 | 0.644 | 0.596 | 0.419 | 0.474 | 0.397 | 0.408 | 0.373 | 0.397 | 0.396 | 0.983 | 0.825 | 0.874 | 0.827 | 0.835
NCI-H727 | 0.742 |  | 1.13 | 0.979 | 0.704 | 0.315 |  | 0.274 | 0.221 | 0.269 | 0.674 | 0.589 | 0.575 | 0.659 | 0.626 | 0.375 | 0.473 | 0.326 | 0.49 | 0.41
NCI-H838 | 0.869 | 0.952 | 0.904 | 0.624 | 0.564 | 1.07 | 1.07 | 1.12 | 1.09 | 1.07 | 0.192 | 0.218 | 0.198 | 0.218 | 0.174 | 0.271 | 0.262 | 0.226 | 0.27 | 0.207
NCI-H1355 | 1.3 | 1.21 | 1.33 | 0.978 | 1.16 | 0.873 | 0.844 | 0.933 | 0.74 | 0.686 | 0.394 | 0.38 |  | 0.382 | 0.356 | 0.763 | 0.638 | 0.476 | 0.553 | 0.554
NCI-H1437 | 0.599 | 0.496 | 0.495 | 0.486 | 0.469 | 1.11 | 1.02 | 0.959 | 1.01 | 0.704 | 0.313 | 0.314 | 0.299 | 0.312 | 0.243 | 0.409 | 0.309 | 0.335 | 0.392 | 0.345
NCI-H1651 | 0.988 | 0.977 | 0.995 | 0.946 | 0.89 | 1.22 | 1.14 | 1 |  | 0.771 | 0.522 | 0.488 | 0.488 | 0.518 | 0.458 | 0.416 | 0.439 | 0.356 | 0.325 | 0.367
NCI-H1666 | 0.811 | 0.831 | 0.926 | 0.728 | 0.727 | 0.759 | 0.775 | 0.773 | 0.708 | 0.757 | 0.698 | 0.554 | 0.658 | 0.673 | 0.689 | 0.812 | 0.792 | 0.801 | 0.794 | 0.808
NCI-H1734 | 0.936 | 0.93 | 0.906 |  | 0.874 | 0.883 | 0.954 | 0.876 |  | 0.781 | 0.348 | 0.362 | 0.35 | 0.345 | 0.286 | 0.409 | 0.465 | 0.444 | 0.454 | 0.401
NCI-H1755 | 1.15 | 1.06 | 1.03 | 1.09 | 0.92 | 1.03 | 1.03 | 1.06 | 1.05 | 0.962 | 0.476 | 0.446 | 0.409 | 0.471 | 0.463 | 0.416 | 0.435 | 0.34 | 0.45 | 0.406
NCI-H1792 | 1.03 | 1.07 | 1.1 | 0.879 | 0.662 | 0.615 | 0.581 | 0.449 | 0.299 | 0.336 | 0.493 | 0.614 | 0.689 | 0.661 | 0.684 | 0.871 | 0.72 | 0.846 | 0.668 | 0.748
NCI-H1915 | 1.02 | 1.05 | 1.04 |  | 1.02 | 1.15 | 1.12 | 1.15 |  | 1.14 | 0.475 | 0.513 | 0.496 | 0.504 | 0.513 | 0.324 | 0.283 | 0.286 | 0.31 | 0.257
NCI-H1975 | 0.375 | 0.408 | 0.455 | 0.308 | 0.317 | 1.06 | 1.17 | 1.11 | 0.98 | 0.752 | 0.511 | 0.534 | 0.53 | 0.437 | 0.379 | 0.416 | 0.313 | 0.351 | 0.277 | 0.366
NCI-H1993 | 1.26 | 1.25 | 1.18 | 1.37 | 1.18 | 0.762 | 0.732 | 0.749 | 0.76 | 0.73 | 0.689 | 0.515 |  | 0.691 | 0.563 | 0.513 | 0.631 | 0.473 | 0.547 | 0.396
NCI-H2009 | 1.11 | 1.13 | 0.998 | 0.513 | 1.05 | 1.19 | 1.19 | 1.13 | 1.24 | 1.24 | 0.196 | 0.201 | 0.228 | 0.24 | 0.0739 | 0.323 | 0.172 | 0.267 | 0.283 | 0.27
NCI-H2023 | 0.94 | 1.15 | 1 | 0.481 | 1.12 | 0.701 | 0.686 | 0.665 | 0.617 | 0.611 | 0.334 | 0.323 | 0.315 | 0.397 | 0.286 | 0.612 | 0.529 | 0.54 | 0.522 | 0.377
NCI-H2085 | 0.969 | 0.968 | 1.06 | 0.948 | 0.944 | 0.828 | 0.917 | 1.06 | 0.912 | 0.846 | 0.507 | 0.432 | 0.5 | 0.46 | 0.469 | 0.17 | 0.228 | 0.196 | 0.254 | 0.264
NCI-H2087 | 1.12 | 0.978 | 0.93 | 0.914 | 0.616 | 0.947 | 0.953 | 0.93 | 1.14 | 1 | 0.284 | 0.203 | 0.198 |  | 0.187 | 0.793 | 0.864 | 0.862 | 0.861 | 0.757
